These results are taken from article PMC5611513, “Structure-Based Prototype Peptides Targeting the Pseudomonas aeruginosa Type VI Secretion System Effector as a Novel Antibacterial Strategy” (Frontiers in Cellular and Infection Microbiology, 2017).

One test concerns the target T1, TplEi (Pseudomonas aeruginosa, UniProt Q9I3K3).
T1 sequence (Q9I3K3 1-380): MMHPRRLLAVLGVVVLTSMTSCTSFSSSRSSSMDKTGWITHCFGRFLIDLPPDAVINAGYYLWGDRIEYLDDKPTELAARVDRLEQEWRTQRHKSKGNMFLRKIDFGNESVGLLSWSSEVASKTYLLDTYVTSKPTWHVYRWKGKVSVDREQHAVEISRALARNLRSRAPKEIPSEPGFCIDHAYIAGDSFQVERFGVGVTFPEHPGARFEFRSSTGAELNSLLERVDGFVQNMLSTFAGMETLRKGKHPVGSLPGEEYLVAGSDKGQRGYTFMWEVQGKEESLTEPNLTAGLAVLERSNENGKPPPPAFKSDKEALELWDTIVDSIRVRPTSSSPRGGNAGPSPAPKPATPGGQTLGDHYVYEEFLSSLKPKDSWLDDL
The test can be described thus: Isothermal titration calorimetry (ITC) of TplE peptides with wild type TplEi. The conditions noted are these: for Kd: 25°C, 20 mM Tris-HCl pH 8.0, 100 mM NaCl, A peptides (WT) and its mutants, Figure 3D,E; for effect of the mutation on “L” peptide binding to TplEi: result in words, compared to WT peptide. The class given is binding. The method, then:
(§1) Isothermal titration calorimetry (ITC) assay was performed with a MicroCalTM iTC200 calorimeter (MicroCal, USA) at 25°C; both the protein and peptides were dissolved with the same buffer (20 mM Tris-HCl, pH = 8.0, 100 mM NaCl). The concentration of TplEi was between 0.03 and 0.04 mM. The concentrations of wild type peptides and mutants were between 1 and 2 mM. Titration was scheduled with 18 consecutive injections of 2 μl of peptide with a 120 s interval between injections, using a stirring rate of 600 rpm. Data acquisition and analysis were performed using MicroCal Origin software (version 7.0).
(In general: ITC needs no label: the signal is the heat of the interaction.)

In the next test the target is T2, TplEi S215A mutant (Pseudomonas aeruginosa, UniProt Q9I3K3, S215A).
T2 sequence (Q9I3K3 1-380 S215A): T1 sequence (Q9I3K3 1-380) with S215A
The test can be described thus: ITC of the “L” peptide with TplEi mutant S215A. The class given is binding. How it is done:
as §1
(§2) To further elucidate the mechanism underlying the “L” peptide binding, we mutated several key residues of TplEi interacting with the “L” peptide, and measured the binding affinity of the “L” peptide to these TplEi mutants using ITC. The side chain of K100 of the “L” peptide forms four hydrogen bonds with TplEi, among which only one involves side chain interaction with S215 of TplEi, whereas the other three involve backbone atoms. […] Similarly, we prepared TplEi mutants E219A and R266A, respectively. E219 forms a hydrogen bond with backbone NH group of K100 of the “L” peptide, and R266 forms two hydrogen bonds with the carbonyl group of W96 of the peptide (Figure 3A).

A further test concerns the target T3, TplEi E219A mutant (Pseudomonas aeruginosa, UniProt Q9I3K3, E219A).
T3 sequence (Q9I3K3 1-380 E219A): T1 sequence (Q9I3K3 1-380) with E219A
The test can be described thus: ITC of the “L” peptide with TplEi mutant E219A. It is filed as binding. The method, then:
as §1, §2

The target of test [1] is T4, TplEi R266A mutant (Pseudomonas aeruginosa, UniProt Q9I3K3).
T4 sequence (Q9I3K3 1-380 R226A): T1 sequence (Q9I3K3 1-380) with R226A
The test can be described thus: ITC of the “L” peptide with TplEi mutant R266A. The conditions noted are these: 25°C, TplEi R266A, Figure S3. The class given is binding. The method, then:
as §1, §2

Test [2] addresses T5, TplEi R266A mutant (Pseudomonas aeruginosa, UniProt Q9I3K3, R226A, form not given).
T5 sequence (Q9I3K3 1-380 R226A): T1 sequence (Q9I3K3 1-380) with R226A
The test can be described thus: ITC of the “L” peptide with TplEi mutant R266A. The class given is binding. The conditions noted are these: TplEi R266A vs wild type TplEi. How it is done:
as §1, §2

A further test concerns E. coli BL21 (DE3). The test can be described thus: Cell-toxicity assay, spot growth on LB agar. The class given is cell-based, Escherichia coli. The conditions noted are these: 0.045 mM IPTG, 24 h; for decrease of growth inhibition on expression of mutated “L” peptide: E. coli BL21 (DE3) expressing TplE-TplEi and mutated peptide, compared with “L” peptide. How it is done:
Cell-toxicity assay was carried as previously described with minor modification (Jiang et al., [2016]). […] A 2 μl bacterial dilution was spotted onto LB agar plate containing 0.045 mM IPTG. Images were taken after 24 h growth.
(A) Diagrams of TplE, TplE-TplEi and “L” peptide expressing constructs. Expression of vector sequence and “L” peptide mutant with the PelB signal peptide was used as a control. […] A 10-fold serial dilution of overnight culture was spotted on LB agar plates from left to right. The experiments were performed at least 3 times.

Substitutions are numbered along the chain they refer to.

As a reminder, the Kd is a measure of binding affinity in units of concentration. A high value points to lower affinity. As to “Ac-DDLFASAGALWTWAWRGPKARQELLKAEQVEVDD-NH2 [I88A]”, binding on TplEi was put at a Kd of 4.8 µM.

In the case of “Ac-DDLFASIGALWTWAWRGPKARQELLKAEQVEVDD-NH2 [“L” peptide]”, the dissociation constant (Kd) was found to be 7.8 µM at TplEi S215A mutant (25°C, TplEi S215A, Figure S3); 35.5 µM on TplEi E219A mutant (25°C, TplEi E219A, Figure S3); 46.9 µM on TplEi R266A mutant [1]. The “reduced binding affinity comparing to wild type TplEi” value at TplEi S215A mutant (TplEi S215A vs wild type TplEi) was about 62 folds. The decreased binding affinity at TplEi E219A mutant (TplEi E219A vs wild type TplEi) is given as 284 folds; on TplEi R266A mutant [2], 375 folds. Further, in the test with E. coli BL21 (DE3) (E. coli BL21 (DE3) expressing periplasmic-targeted TplE-TplEi and peptide, 10-fold serial dilutions, at least 3 experiments), the “growth inhibition on expression of the peptide” value is “significant TplE-dependent growth inhibition”.

As for “Ac-DDLFASIGALWTWAWRGAKARQELLKAEQVEVDD-NH2 [P99A]”, at TplEi, the Kd was 0.057 µM and the “effect of the mutation on “L” peptide binding to TplEi” value (shortened to “effect of the mutation”) was “increased binding affinity”.

Take “DDLFASIGALWTWAWRGPEARQELLKAEQVEVDD [K100E]”: at TplEi, the “effect of the mutation” value is “completely abolished”. For the same substance, the “decrease of growth inhibition on expression of mutated “L” peptide” value in the test on E. coli BL21 (DE3) is “strong”.

Turning to “Ac-DDLFASIGALATWAWRGPKARQELLKAEQVEVDD-NH2 [W92A]”, the Kd at TplEi turned out to be 50 µM. The “decrease of growth inhibition on expression of mutated “L” peptide” value with E. coli BL21 (DE3) was “moderate decreased growth inhibition”.

Substance “Ac-DDLFASIGALWTWAWRAPKARQELLKAEQVEVDD-NH2 [G98A]” registered a dissociation constant (Kd) at TplEi of 1.31 µM.

Turning to “Ac-DDLFASIGAAWTWAWRGPKARQELLKAEQVEVDD-NH2 [L91A]”, at TplEi, the affinity, expressed as Kd, was 3.7 µM.

On to “Ac-DDLFASIGALWTWAARGPKARQELLKAEQVEVDD-NH2 [W96A]”, for which, on TplEi, the Kd was 0.031 µM and the “effect of the mutation” value was “increased binding affinity”.
